Experimental data from US20250230172A1 (Vanqua Bio, Inc., priority 2021, published 2025).

These molecules were tested against T1, GCase (Homo sapiens, UniProt P04062) (assay: live cell PFB assay in HELA cells for activation of GCase).
T1 construct: endogenous in cells; host or cells: HeLa cells
T1 sequence (P04062 40-536): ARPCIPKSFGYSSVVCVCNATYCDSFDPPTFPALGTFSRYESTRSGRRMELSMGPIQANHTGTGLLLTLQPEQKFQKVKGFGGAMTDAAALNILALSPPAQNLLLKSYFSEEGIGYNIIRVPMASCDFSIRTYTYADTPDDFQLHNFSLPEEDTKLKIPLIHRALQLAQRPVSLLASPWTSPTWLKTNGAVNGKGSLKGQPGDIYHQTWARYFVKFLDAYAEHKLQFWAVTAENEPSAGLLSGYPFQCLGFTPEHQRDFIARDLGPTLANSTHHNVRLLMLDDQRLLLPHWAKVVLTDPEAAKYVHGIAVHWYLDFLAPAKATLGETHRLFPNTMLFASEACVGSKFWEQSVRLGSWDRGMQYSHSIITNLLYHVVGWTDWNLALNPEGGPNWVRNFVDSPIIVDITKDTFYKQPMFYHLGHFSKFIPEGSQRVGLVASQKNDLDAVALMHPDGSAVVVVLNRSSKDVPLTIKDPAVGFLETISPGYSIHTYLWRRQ
Type: cell-based
Experimental: Exemplary compounds were evaluated for activation of GCase in a live cell PFB assay in HELA cells (essentially as described in Ysselstein et al., “LRRK2 kinase activity regulates lysosomal glucocerebrosidase in neurons derived from Parkinson's disease patients” Nature Communications (2019) 10:5570). […] EC50 ranges: A: <10 μM; B: >10-50 μM; C: >50-100 μM; D: >100 μM.

EC50 [µM] | Compound
> 100 | FC(F)Cn1ncc2ncc(N3C[C@@H]4CN(c5cc(C(F)(F)F)ccn5)C[C@H]4C3)nc21 (racemic) [Compound 44, rac-2-[(3aR,6aR)-5-[1-(2,2-difluoroethyl)-1H-pyrazolo[3,4-b]pyrazin-6-yl]-octahydropyrrolo[3,4-c]pyrrol-2-yl]-4-(trifluoromethyl)pyridine]
10 to 50 | FC(F)Cn1ncc2ncc(N[C@@H]3CC[C@@H]4CN(c5cccc(C(F)(F)F)n5)C[C@@H]4C3)nc21 (single isomer, unassigned) [Compound 71]
> 100 | COc1cnc(N2C[C@H]3C[C@H](Nc4cnc5cnn(CC(F)F)c5n4)C[C@H]3C2)cn1 [Compound 77, 1-(2,2-difluoroethyl)-N-((3aR,5s,6aS)-2-(5-methoxypyrazin-2-yl)octahydrocyclopenta[c]pyrrol-5-yl)-1H-pyrazolo[3,4-b]pyrazin-6-amine]
10 to 50 | FC(F)Cn1ncc2ncc(N3C[C@H]4CCN(c5cncc(C(F)(F)F)c5)C[C@H]4C3)nc21 (racemic) [Compound 14, rac-3-[(3aR,7aR)-2-[1-(2,2-difluoroethyl)-1H-pyrazolo[3,4-b]pyrazin-6-yl]-octahydro-1H-pyrrolo[3,4-c]pyridin-5-yl]-5-(trifluoromethyl)pyridine]
> 100 | FC(F)Cn1ncc2ncc(NC3C[C@@H]4CN(c5ncccc5C(F)(F)F)C[C@@H]4C3)nc21 (stereo partly drawn) [Compound 41, (3aR,5S,6aS)—N-[1-(2,2-difluoroethyl)-1H-pyrazolo[3,4-b]pyrazin-6-yl]-2-[3-(trifluoromethyl)pyridin-2-yl]-octahydrocyclopenta[c]pyrrol-5-amine]
10 to 50 | FC(F)Cn1ncc2ncc(N3C[C@@H]4CN(c5ccc(C(F)(F)F)nc5)C[C@H]4C3)nc21 (racemic) [Compound 48, rac-5-[(3aR,6aR)-5-[1-(2,2-difluoroethyl)-1H-pyrazolo[3,4-b]pyrazin-6-yl]-octahydropyrrolo[3,4-c]pyrrol-2-yl]-2-(trifluoromethyl)pyridine]
10 to 50 | COc1nccnc1N1C[C@H]2C[C@H](Nc3cnc4cnn(CC(F)F)c4n3)C[C@H]2C1 [Compound 81, 1-(2,2-difluoroethyl)-N-((3aR,5s,6aS)-2-(3-methoxypyrazin-2-yl)octahydrocyclopenta[c]pyrrol-5-yl)-1H-pyrazolo[3,4-b]pyrazin-6-amine]
10 to 50 | FC(F)Cn1ncc2ncc(N3C[C@H]4CCN(c5cnccc5C(F)(F)F)C[C@H]4C3)nc21 (racemic) [Compound 24, rac-3-[(3aR,7aR)-2-[1-(2,2-difluoroethyl)-1H-pyrazolo[3,4-b]pyrazin-6-yl]-octahydro-1H-pyrrolo[3,4-c]pyridin-5-yl]-4-(trifluoromethyl)pyridine]
10 to 50 | FC(F)Cn1ncc2ncc(N[C@H]3C[C@@H]4CN(c5cnc(C(F)(F)F)cn5)C[C@@H]4C3)nc21 [Compound 79, 1-(2,2-difluoroethyl)-N-((3aR,5s,6aS)-2-(5-(trifluoromethyl)pyrazin-2-yl)octahydrocyclopenta[c]pyrrol-5-yl)-1H-pyrazolo[3,4-b]pyrazin-6-amine]
10 to 50 | FC(F)(F)Cn1ncc2ncc(N3CC[C@@H]4CN(c5cc(C(F)(F)F)ccn5)C[C@@H]4C3)nc21 (racemic) [Compound 13]

The next lines start with the molecule.

Compound | EC50 [µM]
O=C(c1ccc2cc[nH]c2c1)N1CCN2C[C@H](Oc3cccnc3C(F)(F)F)C[C@H]2C1 [Compound 28, 6-[(7R,8aS)-7-{[2-(trifluoromethyl)pyridin-3-yl]oxy}-octahydropyrrolo[1,2-a]pyrazine-2-carbonyl]-1H-indole] | 10 to 50
O=C(c1ccc2ccn(C3COC3)c2c1)N1CC[C@@H]2CN(c3cc(C(F)(F)F)ccn3)C[C@@H]2C1 (racemic) [Compound 16, rac-6-[(3aR,7aS)-2-[4-(trifluoromethyl)pyridin-2-yl]-octahydro-1H-pyrrolo[3,4-c]pyridine-5-carbonyl]-1-(oxetan-3-yl)-1H-indole] | 10 to 50
O=C1[C@@H]2CN(c3cccc(C(F)(F)F)n3)C[C@@H]2CN1c1cnc2cnn(CC(F)F)c2n1 (racemic) [Compound 62, rac-(3aR,6aS)-2-[1-(2,2-difluoroethyl)-1H-pyrazolo[3,4-b]pyrazin-6-yl]-5-[6-(trifluoromethyl)pyridin-2-yl]-octahydropyrrolo[3,4-c]pyrrol-1-one] | 10 to 50
FC(F)Cn1ncc2ncc(N[C@@H]3C[C@@H]4CN(c5ncccc5C(F)(F)F)C[C@@H]4C3)nc21 [Compound 38, (3aR,5S,6aS)—N-[1-(2,2-difluoroethyl)-1H-pyrazolo[3,4-b]pyrazin-6-yl]-2-[3-(trifluoromethyl)pyridin-2-yl]-octahydrocyclopenta[c]pyrrol-5-amine] | < 10
FC(F)Cn1ncc2ncc(N[C@H]3C[C@@H]4CN(c5nccnc5C(F)(F)F)C[C@@H]4C3)nc21 [Compound 80, 1-(2,2-difluoroethyl)-N-((3aR,5s,6aS)-2-(3-(trifluoromethyl)pyrazin-2-yl)octahydrocyclopenta[c]pyrrol-5-yl)-1H-pyrazolo[3,4-b]pyrazin-6-amine] | < 10
O=C1CC2CN(c3cccc(C(F)(F)F)n3)CC2CN1c1cnc2cnn(CC(F)F)c2n1 (stereo not drawn) [Compound 66, 5-(1-(2,2-difluoroethyl)-1H-pyrazolo[3,4-b]pyrazin-6-yl)-2-(6-(trifluoromethyl)pyridin-2-yl)octahydro-6H-pyrrolo[3,4-c]pyridin-6-one] | 10 to 50
FC(F)Cn1ncc2ncc(N3C[C@H]4CCN(c5ccnc(C(F)(F)F)c5)C[C@H]4C3)nc21 (racemic) [Compound 23, rac-4-[(3aR,7aR)-2-[1-(2,2-difluoroethyl)-1H-pyrazolo[3,4-b]pyrazin-6-yl]-octahydro-1H-pyrrolo[3,4-c]pyridin-5-yl]-2-(trifluoromethyl)pyridine] | 10 to 50
FC(F)Cn1ncc2ncc(N3C[C@H]4CCN(c5ccncc5C(F)(F)F)C[C@H]4C3)nc21 (racemic) [Compound 22, rac-4-[(3aR,7aR)-2-[1-(2,2-difluoroethyl)-1H-pyrazolo[3,4-b]pyrazin-6-yl]-octahydro-1H-pyrrolo[3,4-c]pyridin-5-yl]-3-(trifluoromethyl)pyridine] | < 10
FC(F)Cn1ncc2ncc(N[C@H]3C[C@@H]4CN(c5cncnc5C(F)(F)F)C[C@@H]4C3)nc21 [Compound 89, 1-(2,2-difluoroethyl)-N-((3aR,5s,6aS)-2-(4-(trifluoromethyl)pyrimidin-5-yl)octahydrocyclopenta[c]pyrrol-5-yl)-1H-pyrazolo[3,4-b]pyrazin-6-amine] | < 10
FC(F)Cn1ncc2ncc(N3CC4CC(Oc5cc(C(F)(F)F)ccn5)CC4C3)nc21 (stereo not drawn) [Compound 30, 2-({2-[1-(2,2-difluoroethyl)-1H-pyrazolo[3,4-b]pyrazin-6-yl]-octahydrocyclopenta[c]pyrrol-5-yl}oxy)-4-(trifluoromethyl)pyridine] | < 10
FC(F)Cn1ncc2ncc(N[C@H]3C[C@@H]4CN(c5ccc(C(F)(F)F)nn5)C[C@@H]4C3)nc21 [Compound 82, 1-(2,2-difluoroethyl)-N-((3aR,5s,6aS)-2-(6-(trifluoromethyl)pyridazin-3-yl)octahydrocyclopenta[c]pyrrol-5-yl)-1H-pyrazolo[3,4-b]pyrazin-6-amine] | 10 to 50
